Patent US20240083892A1 (BISICHEM CO., LTD., priority 2021, published 2024)

Assays:
RIPK1 [1] = biological target: T1, RIPK1 (Homo sapiens, UniProt Q13546); test: Cell-based necroptosis assay for RIPK1 activity (cell viability by CCK-8); details: HT-29 cells; Z-VAD-FMK 20 μM, human TNFα 10 ng/ml, SM-164 100 nM; 24 h; read-out: Cell-base RIPK1 activity: Necroptosis
T1 construct: endogenous in cells; host or cells: HT-29 (KCLB 30038)
T1 sequence (Q13546 1-671): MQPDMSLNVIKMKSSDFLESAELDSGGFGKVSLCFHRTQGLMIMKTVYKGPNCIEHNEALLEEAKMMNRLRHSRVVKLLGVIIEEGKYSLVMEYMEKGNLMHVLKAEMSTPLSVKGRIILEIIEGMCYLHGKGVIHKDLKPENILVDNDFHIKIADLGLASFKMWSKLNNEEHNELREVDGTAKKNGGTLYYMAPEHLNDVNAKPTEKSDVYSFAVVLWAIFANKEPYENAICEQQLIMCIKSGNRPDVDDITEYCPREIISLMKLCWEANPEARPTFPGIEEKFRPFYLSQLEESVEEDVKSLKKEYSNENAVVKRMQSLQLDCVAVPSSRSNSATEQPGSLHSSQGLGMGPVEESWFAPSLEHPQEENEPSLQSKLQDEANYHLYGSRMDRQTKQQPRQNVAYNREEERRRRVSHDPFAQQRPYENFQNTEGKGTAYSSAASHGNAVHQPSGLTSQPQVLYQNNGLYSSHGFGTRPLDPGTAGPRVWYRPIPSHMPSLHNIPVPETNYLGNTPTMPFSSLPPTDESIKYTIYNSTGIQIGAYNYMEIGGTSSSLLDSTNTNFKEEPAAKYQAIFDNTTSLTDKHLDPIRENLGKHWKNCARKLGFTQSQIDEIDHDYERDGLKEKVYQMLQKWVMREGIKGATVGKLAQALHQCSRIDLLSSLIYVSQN
Protocol: (§1) Human colon carcinoma cell HT-29 (KCLB 30038), BV2 mouse microglial cell (cell was a kind gift from Dr. Nak-Yun Sung, Senior researcher at Korea Prime Pharmacy CO., LTD.) and human microglial cell HMC3 (ATCC® CRL-3304™). HT-29 cell was grown in Roswell Park Memorial Institute (RPMI) 1640, BV2 cell was grown in Dulbecco's Modified Eagle's Medium (DMEM) and HMC3 cell was grown in Minimum Essential Media Eagle (MEM) supplemented with 10% fetal bovine serum and 1% mixture of penicillin and streptomycin (Gibco). Cells were maintained at 37° C. in a humidified 5% CO2 atmosphere.
To measure the activity of RIPK1 inhibitor in necroptotic cells, HT-29 cells were treated by control DMSO, human TNFα (Peprotech, Rocky Hill, USA), SM-164 (Biovision, California, USA) and a pan-caspase inhibitor Z-VAD-FMK (Invivogen, San Diego, USA). Cells were pretreated with Z-VAD-FMK 20 μM. After 30 min, human TNFα 10 ng/ml, SM-164 100 nM and RIPK1 Inhibitor (0.0001, 0.001, 0.01, 0.02, 0.05, 0.1, 1, 10 uM) were treated for 24 h. Cell viability was measured by Cell Counting Kit 8 (CCK-8) (Dong-in, Seoul, Korea).

RIPK1 [2] = biological target: T1, RIPK1; test: Immunoblotting of TNFα induced phospho-RIPK1 (ser 166) levels; assay type: cell-based; details: HMC3 cells; Z-VAD-FMK, human TNFα 20 ng/ml, SM-164 100 nM; 7 h, serum free media; read-out: Cell-base RIPK1 activity: phspho-RIPK1 (Ser166)
Protocol: as §1
Biological activity of the compounds of RIPK1 inhibitor was determined by measuring their ability to inhibitor TNFα induced phospho-RIPK1 (ser 166) levels, phospho-RIPK3 levels, phospho-MLKL levels in HMC3 cells. Cells were pretreated with Z-VAD-FMK […]. After 30 min, human TNFα 20 ng/ml, SM-164 100 nM and RIPK1 inhibitor (0.1, 1, 10 nM) were treated for 7 h under serum free media. Cells were lysed with cold lysis buffer containing 25 mM HEPES pH 7.6, […] NaCl, 1% NP40, 1% sodium deoxycholate, 0.1% SDS, and protease inhibitor mixture (Bimake, Houston, USA) using sonicators. The cells were centrifuged at 15,000 rpm, 4° C. for 5 min. After protein concentration of the lysates (supernatants) was quantified using BCA assay (Thermo Fisher Scientific, Waltham, USA), lysates were mixed with LDS sample buffer and heating at […] for 10 min. (Invitrogen, California, USA). […] The membranes are placed in an image analyzer (Imagequant, LAS 500, GE Healthcare), connected to a computer which allows the image generation (software Image reader LAS 500).

CN1C(=O)[C@@H](NC(=O)n2cc(Cc3cccc(F)c3)cn2)COc2ccc(OCC#CC3(O)CCC3)cc21 [Example 24, (S)-4-(3-fluorobenzyl)-N-(7-((3-(1-hydroxycyclobutyl)prop-2-yn-1-yl)oxy)-5-methyl-4-oxo-2,3,4,5-tetrahydrobenzo[b][1,4]oxazepin-3-yl)-1H-pyrazole-1-carboxamide]
IC50 (RIPK1 [1]): < 10 nM
IC50 (RIPK1 [2]): < 10 nM

CN1C(=O)[C@@H](NC(=O)n2cc(Cc3cccc(F)c3)cn2)COc2ccc(OCC(=O)N3CCC(C)(C)CC3)cc21 [Example 37, (S)—N-(7-(2-(4,4-dimethylpiperidin-1-yl)-2-oxoethoxy)-5-methyl-4-oxo-2,3,4,5-tetrahydrobenzo[b][1,4]oxazepin-3-yl)-4-(3-fluorobenzyl)-1H-pyrazole-1-carboxamide]
IC50 (RIPK1 [1]): < 10 nM
IC50 (RIPK1 [2]): < 10 nM

CN1C(=O)[C@@H](NC(=O)n2cc(Cc3cccc(F)c3)cn2)COc2ccc(OCc3nc(C(C)(C)O)cs3)cc21 [Example 66, (S)-4-(3-fluorobenzyl)-N-(7-((4-(2-hydroxypropan-2-yl)thiazol-2-yl)methoxy)-5-methyl-4-oxo-2,3,4,5-tetrahydrobenzo[b][1,4]oxazepin-3-yl)-1H-pyrazole-1-carboxamide]
IC50 (RIPK1 [1]): < 10 nM
IC50 (RIPK1 [2]): < 10 nM

CN1C(=O)[C@@H](NC(=O)n2cc(Cc3cccc(F)c3)cn2)COc2ccc(OCC(=O)N3CCOCC3)cc21 [Example 39, (S)-4-(3-fluorobenzyl)-N-(5-methyl-7-(2-morpholino-2-oxoethoxy)-4-oxo-2,3,4,5-tetrahydrobenzo[b][1,4]oxazepin-3-yl)-1H-pyrazole-1-carboxamide]
IC50 (RIPK1 [1]): < 10 nM
IC50 (RIPK1 [2]): < 10 nM

CN1C(=O)[C@@H](NC(=O)n2cc(Cc3cccc(F)c3)cn2)COc2ccc(OCC(=O)n3cc(O[Si](C)(C)C(C)(C)C)cn3)cc21 [Example 54, (S)—N-(7-(2-(4-((tert-butyldimethylsilyl)oxy)-1H-pyrazol-1-yl)-2-oxoethoxy)-5-methyl-4-oxo-2,3,4,5-tetrahydrobenzo[b][1,4]oxazepin-3-yl)-4-(3-fluorobenzyl)-1H-pyrazole-1-carboxamide]
IC50 (RIPK1 [1]): 10 to 50 nM
IC50 (RIPK1 [2]): 10 to 50 nM

Cc1noc(C)c1COc1ccc2c(c1)N(C)C(=O)[C@@H](NC(=O)n1cc(Cc3cccc(F)c3)cn1)CO2 [Example 67, (S)—N-(7-((3,5-dimethylisoxazol-4-yl)methoxy)-5-methyl-4-oxo-2,3,4,5-tetrahydrobenzo[b][1,4]oxazepin-3-yl)-4-(3-fluorobenzyl)-1H-pyrazole-1-carboxamide]
IC50 (RIPK1 [1]): < 10 nM
IC50 (RIPK1 [2]): < 10 nM

CN1C(=O)[C@@H](NC(=O)n2cc(Cc3cccc(F)c3)cn2)COc2ccc(C(=O)N3CCCCC3)cc21 [Example 1, (S)-4-(3-fluorobenzyl)-N-(5-methyl-4-oxo-7-(piperidine-1-carbonyl)-2,3,4,5-tetrahydrobenzo[b][1,4]oxazepin-3-yl)-1H-pyrazole-1-carboxamide]
IC50 (RIPK1 [1]): 10 to 50 nM
IC50 (RIPK1 [2]): 10 to 50 nM

CN1C(=O)[C@@H](NC(=O)n2cc(Cc3cccc(F)c3)cn2)COc2ccc(OCCOCCO)cc21 [Example 19, (S)-4-(3-fluorobenzyl)-N-(7-(2-(2-hydroxyethoxy)ethoxy)-5-methyl-4-oxo-2,3,4,5-tetrahydrobenzo[b][1,4]oxazepin-3-yl)-1H-pyrazole-1-carboxamide]
IC50 (RIPK1 [1]): < 10 nM
IC50 (RIPK1 [2]): < 10 nM

CN1C(=O)[C@@H](NC(=O)n2cc(Cc3cccc(F)c3)cn2)COc2ccc(OCC(=O)N3CCC(F)(F)CC3)cc21 [Example 38, (S)—N-(7-(2-(4,4-difluoropiperidin-1-yl)-2-oxoethoxy)-5-methyl-4-oxo-2,3,4,5-tetrahydrobenzo[b][1,4]oxazepin-3-yl)-4-(3-fluorobenzyl)-1H-pyrazole-1-carboxamide]
IC50 (RIPK1 [1]): < 10 nM
IC50 (RIPK1 [2]): < 10 nM

CC(C)CCCOc1ccc2c(c1)N(C)C(=O)[C@@H](NC(=O)n1cc(Cc3cccc(F)c3)cn1)CO2 [Example 15, (S)-4-(3-fluorobenzyl)-N-(5-methyl-7-((4-methylpentyl)oxy)-4-oxo-2,3,4,5-tetrahydrobenzo[b][1,4]oxazepin-3-yl)-1H-pyrazole-1-carboxamide]
IC50 (RIPK1 [1]): < 10 nM
IC50 (RIPK1 [2]): < 10 nM

CN1C(=O)[C@@H](NC(=O)n2cc(Cc3cccc(F)c3)cn2)COc2ccc(OCc3ccc(F)nc3)cc21 [Example 59, (S)-4-(3-fluorobenzyl)-N-(7-((6-fluoropyridin-3-yl)methoxy)-5-methyl-4-oxo-2,3,4,5-tetrahydrobenzo[b][1,4]oxazepin-3-yl)-1H-pyrazole-1-carboxamide]
IC50 (RIPK1 [1]): < 10 nM
IC50 (RIPK1 [2]): < 10 nM

CN1C(=O)[C@@H](NC(=O)n2cc(Cc3cccc(F)c3)cn2)COc2ccc(OCC(=O)N3CC[C@H](O)C3)cc21 [Example 46, 4-(3-fluorobenzyl)-N—((S)-7-(2-((S)-3-hydroxypyrrolidin-1-yl)-2-oxoethoxy)-5-methyl-4-oxo-2,3,4,5-tetrahydrobenzo[b][1,4]oxazepin-3-yl)-1H-pyrazole-1-carboxamide]
IC50 (RIPK1 [1]): 10 to 50 nM
IC50 (RIPK1 [2]): < 10 nM

CN1C(=O)[C@@H](NC(=O)n2cc(Cc3cccc(F)c3)cn2)COc2ccc(C(=O)N3CCC(F)(F)CC3)cc21 [Example 3]
IC50 (RIPK1 [1]): 10 to 50 nM
IC50 (RIPK1 [2]): 10 to 50 nM

CN1C(=O)[C@@H](NC(=O)n2cc(Cc3cccc(F)c3)cn2)COc2ccc(OCC(=O)N3CCC(C(C)(C)O)CC3)cc21 [Example 43, (S)-4-(3-fluorobenzyl)-N-(7-(2-(4-(2-hydroxypropan-2-yl)piperidin-1-yl)-2-oxoethoxy)-5-methyl-4-oxo-2,3,4,5-tetrahydrobenzo[b][1,4]oxazepin-3-yl)-1H-pyrazole-1-carboxamide]
IC50 (RIPK1 [1]): < 10 nM
IC50 (RIPK1 [2]): < 10 nM

CN1C(=O)[C@@H](NC(=O)n2cc(Cc3cccc(F)c3)cn2)COc2ccc(OCC(=O)N3CCCC3)cc21 [Example 44, (S)-4-(3-fluorobenzyl)-N-(5-methyl-4-oxo-7-(2-oxo-2-(pyrrolidin-1-yl)ethoxy)-2,3,4,5-tetrahydrobenzo[b][1,4]oxazepin-3-yl)-1H-pyrazole-1-carboxamide]
IC50 (RIPK1 [1]): < 10 nM
IC50 (RIPK1 [2]): < 10 nM

CCN(CC(C)(C)O)C(=O)COc1ccc2c(c1)N(C)C(=O)[C@@H](NC(=O)n1cc(Cc3cccc(F)c3)cn1)CO2 [Example 53, (S)—N-(7-(2-(ethyl(2-hydroxy-2-methylpropyl)amino)-2-oxoethoxy)-5-methyl-4-oxo-2,3,4,5-tetrahydrobenzo[b][1,4]oxazepin-3-yl)-4-(3-fluorobenzyl)-1H-pyrazole-1-carboxamide]
IC50 (RIPK1 [1]): < 10 nM
IC50 (RIPK1 [2]): < 10 nM

CN1C(=O)[C@@H](NC(=O)n2cc(Cc3cccc(F)c3)cn2)COc2ccc(OCC(=O)N3CCC(O)CC3)cc21 [Example 40, (S)-4-(3-fluorobenzyl)-N-(7-(2-(4-hydroxypiperidin-1-yl)-2-oxoethoxy)-5-methyl-4-oxo-2,3,4,5-tetrahydrobenzo[b][1,4]oxazepin-3-yl)-1H-pyrazole-1-carboxamide]
IC50 (RIPK1 [1]): < 10 nM
IC50 (RIPK1 [2]): < 10 nM
